Tests used:
[1] = tested on: BBN-induced T739 bladder cancer cells (murine bladder transitional cell line BTT739); assay: Survival of T739 mice with transplanted bladder cancer cells (Example 7); format: in vivo; settings: for Number of live animals remaining in the groups after 30 days of treatment: 30 mice per group
Description: The following example illustrates the benefit of a biological composition of the invention in a mouse model of human bladder cancer based on a murine bladder transitional cell line BTT739. The survival time of mice after tumor injection and treatment was studied.
(§1) The biological composition comprising 10^8 cells per ml of activated and conditioned yeast cells of the strain Saccharomyces cerevisiae Hansen strain AS2.4 was prepared by the methods described in Sections 5.1 and subsections therein.
The tumors were prepared in a similar manner as described in Sections 6.1.
The animals were prepared in a similar manner as described in Section 6.2.
(§2) The mice injected with tumor cells were kept for 5 days and then were divided into 4 experimental groups of ten mice per group and one control group. The four experimental groups were triplicated (i.e., using a total of 120 mice in the experimental groups). In group 2AY, the mice received 0.3 ml of the biological composition once per day. In group 2NY, the mice received 0.3 ml of the untreated yeast cells once per day. In group 2TSPA, the mice were injected intravenously with 1.5 mg of thiotepa (TSPA) per kg body weight per day. In group 2CK1, the mice received 0.3 ml of physiological saline once per day.
(§3) The mice received a biological composition, untreated yeast cells, TSPA or saline on the same day as the tumor cells were transplanted. The mice in group CK2 also started receiving saline on the same day as the other four groups. The biological composition, untreated yeast cells or saline were administered orally by a feeding tube and the TSPA by intravenous injection for 30 consecutive days. The mice were observed over 6 months from the day of tumor inoculation and survival was recorded. The weight of the mice and the weight of the tumor were determined by standard techniques.
Each of the 30 mice in each group received 30 consecutive days of either untreated yeast cells, TSPA, saline or a biological composition of the invention.

[2] = tested on: BBN-induced T739 bladder cancer cells (murine bladder transitional cell line BTT739); assay: Tumor growth in T739 mice with transplanted bladder cancer cells (Example 6); format: in vivo, mouse; settings: tumor-bearing T739 mice; 30 consecutive days of treatment (yeast 0.3 ml oral once per day; TSPA 1.5 mg/kg/day i.v.); sacrificed on 31st day
Description: The mice injected with tumor cells were kept for 5 days and then were divided into 4 experimental groups of ten mice per group and one control group. The four experimental groups were triplicated (i.e., using a total of 120 mice in the experimental groups).
The mice in group CK2 also started receiving saline on the same day as the other four groups. […] The weight of the mice and the weight of the tumor were determined by standard techniques.

bladder cell line BBN [3] = assay: Tumor growth in Wistar rats with transplanted bladder cancer cells (Example 8); format: in vivo, rat; settings: tumor-bearing Wistar rats; 30 consecutive days of treatment (yeast 0.3 ml oral once per day; VCR 3 mg/kg/day i.v.); sacrificed on 31st day
Description: The four experimental groups were triplicated (i.e., using a total of 120 rats in the experimental groups).
The weight of the rats and the weight of the tumor were determined by standard techniques.

bladder cell line BBN [4] = assay: Survival of Wistar rats with transplanted bladder cancer cells (Example 9); format: in vivo; settings: for Number of live animals remaining in the groups after 30 days of treatment: 30 rats per group
Description: The following example illustrates the benefit of a biological composition of the invention in a Wistar rat model of human bladder cancer. The survival time of the rats after tumor injection and treatment was studied.
as §1
The animals were prepared in a similar manner as described in Section 8.1.
as §2, with “rats” for “mice”, “2VCR,” for “2TSPA,”, “3” for “1.5”, “[…] (VCR)” for “thiotepa (TSPA)”
as §3, with “The rats” for “The mice”, “cells, VCR” for “cells, TSPA”, “group 2CK2” for “group CK2”, “cells and” for “cells or”, “the VCR” for “the TSPA”, “the rats” for “the mice”
Each of the 30 rats in each group received 30 consecutive days of either untreated yeast cells, VCR, saline or a biological composition of the invention.

[5] = 0 month after cessation of treatment
[6] = 1 month after cessation of treatment
[7] = 2 months after cessation of treatment
[8] = 3 months after cessation of treatment
[9] = 4 months after cessation of treatment
[10] = 5 months after cessation of treatment
[11] = 6 months after cessation of treatment
[12] = mice that survived the 6 months observation after 30 days of treatment
[13] = rats that survived the 6 months observation after 30 days of treatment

## S=P(N1CC1)(N1CC1)N1CC1 [TSPA, thiotepa]
[1]; [5]
  Number of live animals remaining in the groups after 30 days of treatment: 30
[1]; [6]
  Number of live animals remaining in the groups after 30 days of treatment: 24
[1]; [7]
  Number of live animals remaining in the groups after 30 days of treatment: 11
[1]; [8]
  Number of live animals remaining in the groups after 30 days of treatment: 7
[1]; [9]
  Number of live animals remaining in the groups after 30 days of treatment: 2
[1]; [10]
  Number of live animals remaining in the groups after 30 days of treatment: 0
[1]; [11]
  Number of live animals remaining in the groups after 30 days of treatment: 0
[1]; 30 days of treatment, observed over 6 months
  survival outcome during the experiment: all died during the experiment
[1]; [12]
  mean weight of mice and standard deviation: all animals dead
  mean weight of tumor nodules and standard deviation: all animals dead
[2]
  mean weight of mice and standard deviation: 19.5 ± 2.2 g
  mean weight of tumor nodules and standard deviation: 3.3 ± 2.1 mg

## CC[C@]1(O)C[C@@H]2CN(CCc3c([nH]c4ccccc34)[C@@](C(=O)OC)(c3cc4c(cc3OC)N(C)[C@H]3[C@@](O)(C(=O)OC)[C@H](OC(C)=O)[C@]5(CC)C=CCN6CC[C@]43[C@@H]65)C2)C1 [VCR, vinblastine]
Bladder cell line BBN [3]
  mean weight of rats and standard deviation: 191.3 ± 12.4 g
  mean weight of tumor nodules and standard deviation: 2.65 ± 1.7 g
Bladder cell line BBN [4]; [5]
  Number of live animals remaining in the groups after 30 days of treatment: 30
Bladder cell line BBN [4]; [6]
  Number of live animals remaining in the groups after 30 days of treatment: 30
Bladder cell line BBN [4]; [7]
  Number of live animals remaining in the groups after 30 days of treatment: 30
Bladder cell line BBN [4]; [8]
  Number of live animals remaining in the groups after 30 days of treatment: 30
Bladder cell line BBN [4]; [9]
  Number of live animals remaining in the groups after 30 days of treatment: 30
Bladder cell line BBN [4]; [10]
  Number of live animals remaining in the groups after 30 days of treatment: 28
Bladder cell line BBN [4]; [11]
  Number of live animals remaining in the groups after 30 days of treatment: 26
Bladder cell line BBN [4]; [13]
  mean weight of rats and standard deviation: all animals dead
  mean weight of tumor nodules and standard deviation: all animals dead
